Like-named read-outs stand apart in the source and are kept apart here.
Assays:
[1] = Stability testing, HPLC evaluation of stored samples; type: physicochemical; conditions: 25° C. and 60% relative humidity
Protocol: Samples of MB-102 were prepared and stored at 25° C. and 60% relative humidity for 24 months. HPLC evaluation of each sample was performed at various time points to assess the stability of the samples.

[2] = Clinical pharmacokinetic study of MB-102 given intravenously: plasma and urine collection; type: in vivo, human; conditions: for half-life: plasma
Protocol: In a clinical study, 60 human patients were administered MB-102 ((2R,2′R)-2,2′-((3,6-diaminopyrazine-2,5-dicarbonyl)bis(azanediyl))bis(3-hydroxypropanoic acid)) prepared in Example 12) intravenously. Blood and urine were collected in addition to the methods and techniques disclosed herein. Standard pharmacokinetic data was collected and comparison was made between the methods and techniques disclosed herein to Omnipaque® (iohexol), a known contrast agent used for GFR determination.
Shown in FIGS. 3A to 3D are data collected from the 60 human patients tested with MB-102. Plasma pharmacokinetic data was collected and analyzed using methods known in the art and compared to the data measured using the methods and techniques disclosed herein.
FIGS. 3A to 3D illustrate a two compartment pharmacokinetic model for the elimination of MB-102. The model is consistent for patients regardless of their GFR values. FIG. 3A is for patients having normal kidney function having a measured GFR (mGFR) of 120 mL/min. FIG. 3B is for patients having a mGFR of 81 mL/min. FIG. 3C is for patients having a mGFR of 28 mL/min. FIG. 3D is for patients having a mGFR of 25 mL/min. The first compartment in the two compartment model is the vascular to tissue equilibrium while the second compartment illustrates renal excretion only. On average, the time for equilibration is about one hour, and is subject dependent.
As part of the clinical 1 study for MB-102, urine was collected from patients for 12 hours to determine the amount recovered and degree of secondary metabolism. […] For patients having normal, stage 1 and stage 2 renal function, 12 hour collection time was sufficient for greater than 99% recovery of MB-102. In view of the pharmacokinetic data and the plasma half-life determination, less than complete collection is readily understood for patients having more serious renal function impairment.
Shown in FIG. 6 is the plasma concentration half-life of MB-102 for patients having either normal kidney function, stage 1 renal impairment, stage 2 renal impairment, stage 3 renal impairment, or stage 4 renal impairment.

[3] = patients having a mGFR value below 60, 12 hours

Purity (HPLC) ([1]; 0 months): >99%
Purity (HPLC) ([1]; 6 months): >99%
Purity (HPLC) ([1]; 12 months): 98.9%
Purity (HPLC) ([1]; 18 months): 98.3%
Purity (HPLC) ([1]; 24 months): 97.8%
time for equilibration (vascular to tissue equilibrium) ([2]; human patients, intravenous, on average, subject dependent): about one
half-life ([2]; human, intravenous, stage 2 and 3 groups (so in the source), read-out: average plasma half-life (converted)): 2.5 h
half-life ([2]; human, intravenous, stage 3 renal impairment, read-out: plasma half-life (converted)): 4 h
half-life ([2]; human, intravenous, stage 4 renal impairment, read-out: plasma half-life (converted)): 8 h
dose excreted ([2]; human, urine, intravenous, patients having normal, stage 1 and stage 2 renal function, 12 hour collection time, read-out: recovery from urine): > 99%
average plasma half-life ([2]; normal renal function group): two
degree of secondary metabolism (urine) [2, 3]: unmetabolized
recovery from urine [2, 3]: a lower percentage was recovered
recovered unmetabolized from urine ([2]; patients having an eGFR greater than 60, after 12 hours): greater than 99%
Structure (SMILES): Nc1nc(C(=O)N[C@H](CO)C(=O)O)c(N)nc1C(=O)N[C@H](CO)C(=O)O [MB-102]
